≈ marks a conversion by molar mass, not a printed value.
What was measured:
[1] = test system: Canis familiaris; experiment: Volume of distribution at steady state in dog at 0.02 to 0.5 mg/kg, iv and po; format: ADME, organism-based, Canis lupus familiaris; parameters: dose 0.02-0.5 mg/kg, route oral; settings: in vivo
[2] = Half life in dog at 0.02 to 0.5 mg/kg, po; format: ADME, organism-based, Canis lupus familiaris; parameters: dose 0.02-0.5 mg/kg, route oral; settings: in vivo
[3] = Bioavailability in dog at 0.02 to 0.5 mg/kg, po; format: ADME, organism-based, Canis lupus familiaris; settings: in vivo
[4] = test system: Canis familiaris; experiment: Clearance in dog at 0.02 to 0.5 mg/kg, iv and po; format: ADME, organism-based, Canis lupus familiaris; parameters: dose 0.02-0.5 mg/kg, route oral; settings: in vivo
[5] = Solubility in potassium phosphate buffer at pH 6.5 by thermodynamic equilibrium aqueous solubility assay; format: physicochemical

Vdss [1] [L/kg] | half-life [2] [h] | bioavailability [3] [%] | CL [4] [mL/min/kg] | solubility thermodynamic [5] [µg/mL] | SMILES
2.6 | 0.7 | 18 | 13 | – | COc1cc(Cl)cc(C(=O)Nc2ccc(Cl)cn2)c1NC(=O)c1ccc(-n2ccccc2=O)cc1F
0.2 | 5.8 | – | 0.33 | – | COc1ccc(-n2nc(C(N)=O)c3c2C(=O)N(c2ccc(N4CCCCC4=O)cc2)CC3)cc1 [APIXABAN]
1.3 | 1.5 | 44 | 12 | 19 (≈ 37 µM) | COc1cc(Cl)cc(C(=O)Nc2ccc(Cl)cn2)c1NC(=O)c1ccc(N2CCCCC2=O)cc1
0.81 | 1.6 | 74 | 5 | – | COc1cc(Cl)cc(C(=O)Nc2ccc(Cl)cn2)c1NC(=O)c1ccc(-n2ccccc2=O)nc1
– | – | – | – | 912 (≈ 1600 µM) | CN(C)CCOc1cc(Cl)cc(C(=O)Nc2ccc(Cl)cn2)c1NC(=O)c1ccc(N2CCCCC2=O)cc1
0.62 | 0.7 | 99 | 11.2 | – | COc1cc(Cl)cc(C(=O)Nc2ccc(Cl)cn2)c1NC(=O)c1ccc(-n2ccccc2=O)cc1

From ChEMBL document CHEMBL1145623, “Structure-activity relationships of anthranilamide-based factor Xa inhibitors containing piperidinone and pyridinone P4 moieties” (Bioorg Med Chem Lett, 2008)
